Data on six compounds can be found in paper PMC11747885, “Potent inhibitors of the human RNA ligase Rlig1 highlights its role in RNA integrity maintenance under oxidative cellular stress” (Chemical Science, 2025).

The conditions of series [1]: ref MedChemExpress, cited from earlier work; for solubility, DMSO: in DMSO; for solubility, H2O: in H2O.
The target in series [2] is T1, Rlig1-AMP (Homo sapiens, UniProt Q8N999).
T1 construct: made in house; host or cells: E. coli BL21 (DE3), pET15b-Rlig1
Put plainly: FRET-based high-throughput screening of inhibitors for Rlig1-AMP. The series is classed as biochemical. The following applies: sheet HTS hits; for 1-D Distance: difference of raw data w/o and w enzyme; for Raw data [w Enyzm]: with enzyme; for Raw data [w/o Enzym]: without enzyme.

Series [3] in a line: in vitro. Particulars: human.
Series [4] has as its system HEK293 cells. Put plainly: Cell viability assay of HEK293 cells treated with inhibitors (CellTiter-Glo).
Series [5] deals with T1, Rlig1-AMP. Put plainly: Radioactive RNA ligation assay (hit validation, 10 µM test and IC50 determination). It counts as biochemical. Particulars: for IC50: n = 3.
A short description of series [6]: Cell viability assay of HEK293 cells treated with inhibitors and menadione. The series is classed as cell-based, human. Particulars: human, HEK293 cells, w/o Menadione; for viability at 7.5 µM: 7.5 µM compound; for viability at 15 µM: 15 µM compound; for viability at 30 µM: 30 µM compound; for viability at 60 µM: 60 µM compound.
Series [7] concerns HEK293 cells. Described as above. The following applies: for Mean Diff, (Predicted (LS) mean diff,) w/o menadione - w menadione: 2 way ANOVA, Šídák's multiple comparisons test, normalised viability. It counts as cell-based, human.
Setting [8] is: log(inhibitor) vs. response, variable slope (four parameters).
Setting [9] is: 20240508 plate 012, DMSO Ko no Mendione = 100.
[10] abbreviates: 20240508 plate 013, DMSO Ko no Mendione = 100.
Where [11] appears, read: 20240515 plate 014, DMSO Ko no Mendione = 100.
Where [12] appears, read: 20240515 plate 015, DMSO Ko no Mendione = 100.

The structures appear in SMILES notation. Values after ≈ are worked out from the molar mass of the structure shown. Values joined by “and” are separate entries in the source; they are usually repeats but may differ in a detail not shown here. Equal entries are not always repeated. “Also recorded” adds a separate entry of the source. Where two headings read alike, the source gives them in different places. Marks after values point to notes of the source that are not given here.

T1 sequence (Q8N999 whole entry): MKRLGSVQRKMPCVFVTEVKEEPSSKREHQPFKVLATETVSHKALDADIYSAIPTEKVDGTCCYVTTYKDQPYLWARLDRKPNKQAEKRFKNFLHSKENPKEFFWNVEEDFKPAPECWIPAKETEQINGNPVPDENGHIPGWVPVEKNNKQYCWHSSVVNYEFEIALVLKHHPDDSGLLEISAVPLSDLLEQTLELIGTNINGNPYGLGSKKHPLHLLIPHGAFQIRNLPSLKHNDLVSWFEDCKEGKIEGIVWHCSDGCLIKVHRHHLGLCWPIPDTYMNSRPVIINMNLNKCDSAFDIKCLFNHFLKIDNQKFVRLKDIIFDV

For `COC(=O)c1cc(OC)c2c(c1-c1c(C(=O)OC)cc(OC)c3c1OCO3)OCO2` [Bifendate], in series [1], the “solubility, DMSO” value is 50 mg/mL (≈ 120 mM) and the “solubility, H2O” value was 1 mg/mL (≈ 2.39 mM). Also, in series [2], the “1-D Distance” value is given as 1790, the “Raw data [w Enyzm]” value is reported as 9076 and the “Raw data [w/o Enzym]” value is given as 10866.
Regarding `CCCCCCCCCCCCCCCC[n+]1ccccc1.O.[Cl-]` [Cetylpyridinium (chloride monohydrate)], in series [1], the “solubility, DMSO” value is given as 20 mg/mL and the “solubility, H2O” value is on record as at least 100 mg/mL.
As to `CCCCCCCCCCCCCCCC[n+]1ccccc1.[Cl-]` [Cetylpyridinium (chloride)], in series [1], the “solubility, DMSO” value is “DMSO : 100 mg/mL (294.13 mM; Need ultrasonic); H2O : 100 mg/mL (294.13 mM; Need ultrasonic)” and the “solubility, H2O” value is given as “DMSO : 100 mg/mL (294.13 mM; Need ultrasonic); H2O : 100 mg/mL (294.13 mM; Need ultrasonic)”.
`Cc1cc(Nc2ccc(NC(=O)c3ccc(Nc4ncnc5ccccc45)cc3)cc2)nc(N)n1` [Compound 45]: in series [3], the viability at 24 h, 0.234375 µM was 110%. Further, the viability at 24 h, 0.46875 µM in series [3] was 101%. Moreover, the viability at 24 h, 0.9375 µM in series [3] amounted to 105%. In series [3], the viability at 24 h, 1.875 µM was determined as 100%. Further, the viability at 24 h, 3.75 µM in series [3] amounted to 103%. For the same compound, the viability at 24 h, 7.5 µM in series [3] is 97.1%. Moreover, the viability at 24 h, 15 µM in series [3] is 90.2%. Moreover, the viability at 24 h, 30 µM in series [3] was 88.8%. The “cytotoxicity (in words)” value in series [4] (HEK293, 24 h, up to 30 μM) was “no detectable cytotoxicity”. In addition, the “IC50 (Figure 3D: EC50 values for plot; log(inhibitor) vs. response -- Variable slope (four parameters))” value in series [4] (HEK293 cell viability, fit per plate (3 plates, 4 technical replicates each), highest tested concentration 30 µM) is 336.896 µM and 119.897 µM and 368.238 µM. In addition, the “LogIC50 (log(inhibitor) vs. response -- Variable slope (four parameters))” value in series [4] (HEK293 cell viability, fit per plate (3 plates, 4 technical replicates each), log of [µM]) was 2.5275 and 2.079 and 2.566. The compound further came in with an EC50 in series [4] (Homo sapiens, HEK293, 24 h) above 30 µM. Further, in series [5] (10 μM compound, 500 nM Rlig1-AMP, 20 min 37 °C), the “inhibition of Rlig1-AMP ligation (urea-PAGE)” value was “Ligation was inhibited; also recorded: inhibited ligase activity”. For the same compound, the “HillSlope (best-fit value)” value in series [5] (four-parameter fit) is 4.095. In addition, in series [5] (four-parameter fit), the “Span (best-fit value)” value is listed as 90.88. The IC50 came out at 7.02 µM in series [5] (four-parameter fit, read-out: IC50 (best-fit value)) and 7.02 µM in series [5] (radioactive ligation assay, 500 nM Rlig1-AMP, 20 min 37 °C, read-out: IC50). In series [5] (log Compound [µM] 1.47712, replicates I-III, read-out: percentage inhibition (dose response curve for IC50)), the inhibition at 30 µM turned out to be 100%. The “LogIC50 (best-fit value)” value in series [5] (log of µM, four-parameter fit) was determined as 0.8461. Further, the “Bottom (best-fit value)” value in series [5] (setting [8]) came out at 7.303. In series [5] (setting [8]), the “Top (best-fit value)” value was 98.18. In addition, the viability at 7.5 µM in series [6] (setting [9]) worked out at 99.2%; in series [6] (setting [10]), 99.9%; in series [6] (setting [11]) it was 95.1%; in series [6] (setting [12]), 102%. Also, the viability at 15 µM in series [6] (setting [9]) came to 95.2%; in series [6] (setting [10]) it was 92.3%; in series [6] (setting [11]), 81.5%; in series [6] (setting [12]) it was 84.3%. Also, the viability at 30 µM in series [6] (setting [9]) was 80.9%; in series [6] (setting [10]), 93.3%; in series [6] (setting [11]), 67.5%; in series [6] (setting [12]) it was 77.5%. For the same compound, the viability at 60 µM worked out at 61.3% in series [6] (setting [11]) and 65.6% in series [6] (setting [12]). Further, the “Mean Diff, (Predicted (LS) mean diff,) w/o menadione - w menadione” value was 24.88 in series [7] (7.5 µM compound), 16.86 in series [7] (15 µM compound), 21.74 in series [7] (30 µM compound) and 16.46 in series [7] (60 µM compound). The “Cell viability raw signal, technical replicates” value (“Cell viability raw signal” below) is 16292 and 19945 and 19668 and 21930 in series [7] (7.5 µM compound, w Menadione (40µM), 20240508 plate 012); 13213 and 13818 and 17967 and 18789 in series [7] (7.5 µM compound, w Menadione (40µM), 20240508 plate 013); 24555 and 24471 and 26313 and 33654 in series [7] (7.5 µM compound, w Menadione (40µM), 20240515 plate 014); 35092 and 33991 and 36306 and 39027 in series [7] (7.5 µM compound, w Menadione (40µM), 20240515 plate 015); 424180 and 398710 and 420300 and 419520 in series [7] (7.5 µM compound, w/o Menadione, 20240508 plate 012); 399000 and 385630 and 399650 and 394170 in series [7] (7.5 µM compound, w/o Menadione, 20240508 plate 013). In addition, the “Cell viability raw signal” value is 359950 and 358800 and 374740 and 459430 in series [7] (7.5 µM compound, w/o Menadione, 20240515 plate 014); 358750 and 400730 and 451820 and 450580 in series [7] (7.5 µM compound, w/o Menadione, 20240515 plate 015); 17222 and 18766 and 16741 and 22933 in series [7] (15 µM compound, w Menadione (40µM), 20240508 plate 012); 19848 and 20626 and 16969 and 23253 in series [7] (15 µM compound, w Menadione (40µM), 20240508 plate 013); 32272 and 27116 and 27955 and 28425 in series [7] (15 µM compound, w Menadione (40µM), 20240515 plate 014); 25226 and 26073 and 29252 and 24387 in series [7] (15 µM compound, w Menadione (40µM), 20240515 plate 015). Besides, the “Cell viability raw signal” value in series [7] (15 µM compound, w/o Menadione, 20240508 plate 012) was 374870 and 367440 and 401070 and 451770; in series [7] (30 µM compound, w Menadione (40µM), 20240508 plate 012), 97659* and 121480* and 17759 and 18485; in series [7] (30 µM compound, w Menadione (40µM), 20240508 plate 013) it was 90653* and 101750* and 11751 and 20016; in series [7] (30 µM compound, w Menadione (40µM), 20240515 plate 014), 23460 and 20263 and 23532 and 25800; in series [7] (30 µM compound, w Menadione (40µM), 20240515 plate 015), 18936 and 15616 and 21631 and 19990; in series [7] (30 µM compound, w/o Menadione, 20240508 plate 012) it was 326400 and 344550 and 324690 and 360730. In addition, the “Cell viability raw signal” value in series [7] (30 µM compound, w/o Menadione, 20240508 plate 013) was 380950 and 384250 and 337920 and 371050; in series [7] (30 µM compound, w/o Menadione, 20240515 plate 014), 277620 and 270780 and 277750 and 275770; in series [7] (30 µM compound, w/o Menadione, 20240515 plate 015) it was 297120 and 296520 and 307370 and 366230; in series [7] (60 µM compound, w Menadione (40µM), 20240515 plate 014), 18908 and 18178 and 17095 and 16101; in series [7] (60 µM compound, w Menadione (40µM), 20240515 plate 015), 15825 and 18398 and 15296 and 15572; in series [7] (60 µM compound, w/o Menadione, 20240515 plate 014) it was 265840 and 239610 and 250590 and 244440. In series [7] (60 µM compound, w/o Menadione, 20240515 plate 015), the “Cell viability raw signal” value was 267940 and 266670 and 268950 and 268790.
As to `COc1cccc2c1C(=O)c1c(O)c3c(c(O)c1C2=O)C[C@@](O)(C(C)=O)C[C@@H]3O[C@H]1C[C@H](N)[C@H](O)[C@H](C)O1.Cl` [Daunorubicin (hydrochloride)], in series [1], the “solubility, DMSO” value is 50 mg/mL and the “solubility, H2O” value is on record as at least 34 mg/mL. The “1-D Distance.npi” value in series [2] (MedChemExpress library) is listed as 94.9773. For the same compound, in series [2], the “1-D Distance” value was 667, the “Raw data [w Enyzm]” value is on record as 1522 and the “Raw data [w/o Enzym]” value stood at 2189.
On to `C[C@]12C=CC(=O)N[C@@H]1CC[C@@H]1[C@@H]2CC[C@]2(C)[C@@H](C(=O)Nc3cc(C(F)(F)F)ccc3C(F)(F)F)CC[C@@H]12` [Dutasteride], for which the “solubility, DMSO” value in series [1] is “DMSO : 33.33 mg/mL (63.06 mM; Need ultrasonic)”. In series [2], the “1-D Distance” value came out at 1706, the “Raw data [w Enyzm]” value amounted to 9054 and the “Raw data [w/o Enzym]” value was found to be 10760.
